# Read-outs that look alike come from different tables or passages of the source. Starred links: 1 amine or outer side, 2 acyl side, 3 side chain; linkers in the order of their positions; H or OH if unused. Positions of bridges follow the written chain, without caps; N, C: chain ends. Residues, ends and D or L forms follow the SMILES beside them. TBMB = c1c(C[*:1])cc(C[*:3])cc1C[*:2]
# Molecular target: RbAp48 (Homo sapiens, UniProt Q09028)
# Test: Competitive fluorescence polarization (FP) assay using complex of peptide 1 and RbAp48
# Type: binding
# Parameters: Full length RbAp48 was cloned; His tag followed by 3C cleavage site (N, cleaved yes); made in house; host or cells: Sf9 insect cells
# Settings: for IC50: competitive FP, RbAp48 15 nM, read-out: IC50
# Description: The binding affinity of our library of synthetic cyclic peptides was evaluated by a competitive fluorescence polarization (FP) assay using a complex formed by peptide 1 and RbAp48. To reduce the length of the peptide it was truncated to the amino acids which seemed most critical according to the crystal structure (residues 676–689, pdb:4pbz). […] We chose to use a cyclization approach to regain affinity, that is, not to induce more interactions but through minimizing the entropic penalty upon binding by reducing the flexibility of the peptide. To this end two amino acids were chosen which are facing one another in the structure (see Figure 1 B/D/E). Two peptides were designed where glutamic acid was used in position 676 (4) or position 680 (5) and lysine in position 688 for both peptides (see Table 1). The macrocycles were formed by connecting the side chains via an amide bond (see Figure 1 D/E). Peptide synthesis was performed on Rink‐amide resin using the Fmoc‐strategy incorporating Fmoc‐L‐Glu(All)‐OH and Fmoc‐L‐Lys(Alloc)‐OH at the sites for cyclization. After completion of the linear synthesis the allyl protecting groups were removed using Pd^0 catalysis and the amide link was formed by using PyBOP. […] Therefore, a range of peptides was synthesized which were cyclized using the same amino acid positions but via a cysteine alkylation strategy (see Figure 1 D/E and Table 1). In this method the residues used for cyclization are replaced with cysteine and benzylic dibromides act as crosslinkers on the unprotected peptides. ^[11] Previous research has shown that such linkers can effectively stabilize cyclic peptides and yield high affinity ligands for protein–protein interaction inhibition. ^[12] Such a linker introduces a xylene group in close vicinity of the hydrophobic patch potentially reconstituting the lost key hydrophobic interactions. To explore a variety of macrocycle conformations we used either ortho‐, meta‐ or para‐substituted dibromides to exchange the linker in both 4 and 5 (see Figure 1 D/E and Table 1). ^[13]
# Protein expression and purification
# RbAp48 was expressed and purified by the Dortmund Protein Facility. Full length RbAp48 was cloned into a pOPIN vector ligating it to an N-terminal His tag followed by a 3C cleavage site. The protein was expressed from Sf9 cells for 48 h. Cells were harvested and lysed and the protein was purified by loading onto a HisTrap FF crude 5 ml column followed by on-column cleavage using Precission protease. The cleaved protein was then further purified using a HiLoad 26/60 Superdex 200 column.
# Fluorescence polarization assay
# Fluorescence polarization assays were performed in 384 wells plates in 80 µl volumes. The assay buffer contains 20 mM Tris-HCl, 150 mM NaCl, 0.01% Tween-20 at pH 7.5. The concentration of the fluorescently labelled peptides was 1 nM plates were incubated at room temperature for 30 min before they were read on a Tecan Spark plate reader (λex = 485 nm, λem = 535 nm).
# For competitive assays the same conditions were used with a tracer concentration of 1 nM was used and a protein concentration of 15 nM .
# [1] = Supplemental Table 2, tracer 1 nM, pH 7.5, 30 min room temperature
# [2] = Table 1, tracer peptide 1 1 nM, 20 mM Tris-HCl, 150 mM NaCl, 0.01% Tween-20, pH 7.5, 30 min room temperature, lower limit set by 15 nM protein
# RbAp48, sequence (Q09028 whole entry): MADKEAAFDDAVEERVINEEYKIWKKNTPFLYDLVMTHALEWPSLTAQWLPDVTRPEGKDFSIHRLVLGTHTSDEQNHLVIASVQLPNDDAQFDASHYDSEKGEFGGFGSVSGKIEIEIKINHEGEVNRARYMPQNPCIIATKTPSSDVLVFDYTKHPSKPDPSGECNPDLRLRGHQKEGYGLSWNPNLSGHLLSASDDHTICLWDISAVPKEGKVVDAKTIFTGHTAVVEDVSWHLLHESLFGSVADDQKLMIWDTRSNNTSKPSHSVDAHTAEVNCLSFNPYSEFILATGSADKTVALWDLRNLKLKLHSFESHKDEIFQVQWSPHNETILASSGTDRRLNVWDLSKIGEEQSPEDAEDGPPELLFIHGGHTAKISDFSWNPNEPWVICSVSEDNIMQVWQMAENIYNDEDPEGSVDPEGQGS
IC50 [1] [nM],IC50 [2] [nM],FP activity in words (competitive FP assay),Compound
153 ± 2.4,–,–,CC(=O)N[C@H]1CSCc2cc3cc(c2)CSC[C@@H](C(=O)N[C@@H](CC(N)=O)C(N)=O)NC(=O)[C@@H]2CCCN2C(=O)[C@H](CC(C)C)NC(=O)[C@H](Cc2ccc(O)cc2)NC(=O)[C@@H]2CCCN2C(=O)[C@H](Cc2c[nH]cn2)NC(=O)[C@H](CCCNC(=N)N)NC(=O)[C@H](C)NC(=O)[C@H](CSC3)NC(=O)[C@H](Cc2c[nH]cn2)NC(=O)[C@H](Cc2c[nH]c3ccccc23)NC(=O)[C@@H]2CCCN2C(=O)[C@H](CCCNC(=N)N)NC1=O [Peptide 34] (Ac-CRPWHCARHPYLPCN-NH2; linker 1-6-14 via TBMB)
7480 ± 3020,–,–,CC(=O)N[C@H]1CSCc2cc3cc(c2)CSC[C@@H](C(=O)N[C@@H](CC(N)=O)C(N)=O)NC(=O)[C@@H]2CCCN2C(=O)[C@H](CC(C)C)NC(=O)[C@H](Cc2ccc(O)cc2)NC(=O)[C@@H]2CCCN2C(=O)[C@H](Cc2c[nH]cn2)NC(=O)[C@H](CCCNC(=N)N)NC(=O)[C@H](C)NC(=O)[C@H](CSC3)NC(=O)[C@H](Cc2c[nH]cn2)NC(=O)[C@H](Cc2c[nH]c3ccccc23)NC(=O)[C@@H]2CCCN2C1=O [Peptide 35] (Ac-CPWHCARHPYLPCN-NH2; linker 1-5-13 via TBMB)
–,> 10000,completely lose affinity,CC(=O)N[C@H]1CSCc2cc3cc(c2)CSC[C@@H](C(=O)N[C@@H](CCCCN)C(N)=O)NC(=O)[C@H](CCCNC(=N)N)NC(=O)[C@@H]2CCCN2C(=O)[C@H](C)NC(=O)[C@H]([C@@H](C)O)NC(=O)[C@H](CCCCN)NC(=O)[C@H](Cc2ccc(O)cc2)NC(=O)[C@H](CCCNC(=N)N)NC(=O)[C@H](CSC3)NC(=O)[C@H](C)NC(=O)[C@H](CCCNC(=N)N)NC(=O)[C@@H]2CCCN2C1=O [Peptide 36] (Ac-CPRACRYKTAPRCK-NH2; linker 1-5-13 via TBMB)
–,12.4 ± 3.2,–,CC(=O)N[C@H]1CSCc2cc3cc(c2)CSC[C@@H](C(=O)N[C@@H](C)C(N)=O)NC(=O)[C@@H]2CCCN2C(=O)[C@H](CCCCN)NC(=O)[C@H](Cc2ccc(O)cc2)NC(=O)[C@@H]2CCCN2C(=O)[C@H](CCCNC(=N)N)NC(=O)[C@H](CCCNC(=N)N)NC(=O)[C@H](C)NC(=O)[C@H](CSC3)NC(=O)[C@H](CCCNC(=N)N)NC(=O)[C@H](CCCCN)NC(=O)[C@H](C)NC1=O [Peptide 37] (Ac-CAKRCARRPYKPCA-NH2; linker 1-5-13 via TBMB)
–,263 ± 42.7,–,CC(=O)N[C@H]1CSCc2cc3cc(c2)CSC[C@@H](C(=O)N[C@@H](C)C(N)=O)NC(=O)[C@@H]2CCCN2C(=O)[C@H](CCCCN)NC(=O)[C@H](Cc2ccc(O)cc2)NC(=O)[C@@H]2CCCN2C(=O)[C@H](CCCNC(=N)N)NC(=O)[C@H](CCCNC(=N)N)NC(=O)[C@H](C)NC(=O)[C@H](CSC3)NC(=O)[C@H](CCCNC(=N)N)NC(=O)[C@H](C)NC(=O)[C@H]([C@@H](C)O)NC1=O [Peptide 38] (Ac-CTARCARRPYKPCA-NH2; linker 1-5-13 via TBMB)
–,77.4 ± 9.6,–,CC(=O)N[C@H]1CSCc2cc3cc(c2)CSC[C@@H](C(=O)N[C@@H](C)C(N)=O)NC(=O)[C@@H]2CCCN2C(=O)[C@H](CCCCN)NC(=O)[C@H](Cc2ccc(O)cc2)NC(=O)[C@@H]2CCCN2C(=O)[C@H](CCCNC(=N)N)NC(=O)[C@H](CCCNC(=N)N)NC(=O)[C@H](C)NC(=O)[C@H](CSC3)NC(=O)[C@H](C)NC(=O)[C@H](CCCCN)NC(=O)[C@H]([C@@H](C)O)NC1=O [Peptide 39] (Ac-CTKACARRPYKPCA-NH2; linker 1-5-13 via TBMB)
–,24.6 ± 3.9,–,CC(=O)N[C@H]1CSCc2cc3cc(c2)CSC[C@@H](C(=O)N[C@@H](C)C(N)=O)NC(=O)[C@@H]2CCCN2C(=O)[C@H](CCCCN)NC(=O)[C@H](Cc2ccc(O)cc2)NC(=O)[C@@H]2CCCN2C(=O)[C@H](C)NC(=O)[C@H](CCCNC(=N)N)NC(=O)[C@H](C)NC(=O)[C@H](CSC3)NC(=O)[C@H](CCCNC(=N)N)NC(=O)[C@H](CCCCN)NC(=O)[C@H]([C@@H](C)O)NC1=O [Peptide 41] (Ac-CTKRCARAPYKPCA-NH2; linker 1-5-13 via TBMB)
–,131 ± 15.3,–,CC(=O)N[C@H]1CSCc2cc3cc(c2)CSC[C@@H](C(=O)N[C@@H](C)C(N)=O)NC(=O)[C@@H]2CCCN2C(=O)[C@H](CCCCN)NC(=O)[C@H](Cc2ccc(O)cc2)NC(=O)[C@H](C)NC(=O)[C@H](CCCNC(=N)N)NC(=O)[C@H](CCCNC(=N)N)NC(=O)[C@H](C)NC(=O)[C@H](CSC3)NC(=O)[C@H](CCCNC(=N)N)NC(=O)[C@H](CCCCN)NC(=O)[C@H]([C@@H](C)O)NC1=O [Peptide 42] (Ac-CTKRCARRAYKPCA-NH2; linker 1-5-13 via TBMB)
–,38.3 ± 1.9,–,CC(=O)N[C@H]1CSCc2cc3cc(c2)CSC[C@@H](C(=O)N[C@@H](C)C(N)=O)NC(=O)[C@@H]2CCCN2C(=O)[C@H](CCCCN)NC(=O)[C@H](C)NC(=O)[C@@H]2CCCN2C(=O)[C@H](CCCNC(=N)N)NC(=O)[C@H](CCCNC(=N)N)NC(=O)[C@H](C)NC(=O)[C@H](CSC3)NC(=O)[C@H](CCCNC(=N)N)NC(=O)[C@H](CCCCN)NC(=O)[C@H]([C@@H](C)O)NC1=O [Peptide 43] (Ac-CTKRCARRPAKPCA-NH2; linker 1-5-13 via TBMB)
–,19.8 ± 3.6,–,CC(=O)N[C@H]1CSCc2cc3cc(c2)CSC[C@@H](C(=O)N[C@@H](C)C(N)=O)NC(=O)[C@@H]2CCCN2C(=O)[C@H](C)NC(=O)[C@H](Cc2ccc(O)cc2)NC(=O)[C@@H]2CCCN2C(=O)[C@H](CCCNC(=N)N)NC(=O)[C@H](CCCNC(=N)N)NC(=O)[C@H](C)NC(=O)[C@H](CSC3)NC(=O)[C@H](CCCNC(=N)N)NC(=O)[C@H](CCCCN)NC(=O)[C@H]([C@@H](C)O)NC1=O [Peptide 44] (Ac-CTKRCARRPYAPCA-NH2; linker 1-5-13 via TBMB)
–,15.6 ± 2.2,–,CC(=O)N[C@H]1CSCc2cc3cc(c2)CSC[C@H](NC(=O)[C@H](CCCNC(=N)N)NC(=O)[C@H](CCCCN)NC(=O)[C@H]([C@@H](C)O)NC1=O)C(=O)N[C@@H](C)C(=O)N[C@@H](CCCNC(=N)N)C(=O)N[C@@H](CCCNC(=N)N)C(=O)N1CCC[C@H]1C(=O)N[C@@H](Cc1ccc(O)cc1)C(=O)N[C@@H](CCCCN)C(=O)N[C@@H](C)C(=O)N[C@H](C(=O)N[C@@H](C)C(N)=O)CSC3 [Peptide 45] (Ac-CTKRCARRPYKACA-NH2; linker 1-5-13 via TBMB)
–,20.5 ± 1.4,–,CC(=O)N[C@H]1CSCc2cc3cc(c2)CSC[C@H](NC(=O)[C@H](CCCNC(=N)N)NC(=O)[C@H](CCCCN)NC(=O)[C@H]([C@@H](C)O)NC1=O)C(=O)N[C@@H](C)C(=O)N[C@@H](CCCNC(=N)N)C(=O)N[C@@H](CCCNC(=N)N)C(=O)N1CCC[C@H]1C(=O)N[C@@H](Cc1ccc(O)cc1)C(=O)N[C@@H](CCCCN)C(=O)N1CCC[C@H]1C(=O)N[C@H](C(N)=O)CSC3 [Peptide 46] (Ac-CTKRCARRPYKPC-NH2; linker 1-5-13 via TBMB)

# Reference: paper PMC7894522, “Structure Based Design of Bicyclic Peptide Inhibitors of RbAp48” (Angewandte Chemie (International Ed. in English), 2020)
